This is an account of results in article PMC10004634 (PLOS ONE, 2023).

Read-outs that look alike come from different tables or passages of the source.

Some targets named below: CSNK1E (Homo sapiens, UniProt P49674); SLK (Homo sapiens, UniProt Q9H2G2); PLK3 (Homo sapiens, UniProt Q9H4B4); NEK7 (Homo sapiens, UniProt Q8TDX7); ROCK2 (Homo sapiens, UniProt O75116).
Holding throughout (experiment): biochemical
Holding throughout (parameters): KINOMEscan scanMAX competition binding, DNA-tagged kinases, qPCR read-out, percent control at 300 nM
Background: Quantitative PCR measures a nucleic acid by following its amplification.

The target in another experiment is T1, BRSK1 (Homo sapiens, UniProt Q8TDC3).
T1 sequence (Q8TDC3 1-778): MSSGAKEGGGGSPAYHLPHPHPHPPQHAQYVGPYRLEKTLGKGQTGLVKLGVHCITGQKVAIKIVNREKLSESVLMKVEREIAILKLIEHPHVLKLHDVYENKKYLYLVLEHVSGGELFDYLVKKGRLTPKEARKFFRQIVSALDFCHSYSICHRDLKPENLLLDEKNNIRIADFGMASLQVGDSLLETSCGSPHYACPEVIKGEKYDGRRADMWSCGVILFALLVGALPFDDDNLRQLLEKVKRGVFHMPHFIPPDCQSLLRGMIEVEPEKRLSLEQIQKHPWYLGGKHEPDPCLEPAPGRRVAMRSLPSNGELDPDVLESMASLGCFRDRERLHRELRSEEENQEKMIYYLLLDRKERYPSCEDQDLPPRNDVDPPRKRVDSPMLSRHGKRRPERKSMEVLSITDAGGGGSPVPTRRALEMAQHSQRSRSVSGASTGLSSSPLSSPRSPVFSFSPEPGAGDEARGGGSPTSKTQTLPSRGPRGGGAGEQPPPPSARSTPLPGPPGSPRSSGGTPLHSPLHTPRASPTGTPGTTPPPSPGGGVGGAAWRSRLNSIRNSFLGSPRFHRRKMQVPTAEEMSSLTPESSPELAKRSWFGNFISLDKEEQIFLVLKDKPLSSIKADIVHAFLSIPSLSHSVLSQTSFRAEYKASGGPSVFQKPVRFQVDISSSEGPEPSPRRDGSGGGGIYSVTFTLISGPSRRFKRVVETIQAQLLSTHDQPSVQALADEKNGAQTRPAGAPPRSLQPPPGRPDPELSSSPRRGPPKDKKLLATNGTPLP

Experiment [1] concerns the target T2, ABL1(F317I)-nonphosphorylated (Homo sapiens, UniProt P00519, F317I).
T2 construct: nonphosphorylated

A further experiment has as its target T3, BRSK2 (Homo sapiens, UniProt Q8IWQ3).
T3 sequence (Q8IWQ3 1-736): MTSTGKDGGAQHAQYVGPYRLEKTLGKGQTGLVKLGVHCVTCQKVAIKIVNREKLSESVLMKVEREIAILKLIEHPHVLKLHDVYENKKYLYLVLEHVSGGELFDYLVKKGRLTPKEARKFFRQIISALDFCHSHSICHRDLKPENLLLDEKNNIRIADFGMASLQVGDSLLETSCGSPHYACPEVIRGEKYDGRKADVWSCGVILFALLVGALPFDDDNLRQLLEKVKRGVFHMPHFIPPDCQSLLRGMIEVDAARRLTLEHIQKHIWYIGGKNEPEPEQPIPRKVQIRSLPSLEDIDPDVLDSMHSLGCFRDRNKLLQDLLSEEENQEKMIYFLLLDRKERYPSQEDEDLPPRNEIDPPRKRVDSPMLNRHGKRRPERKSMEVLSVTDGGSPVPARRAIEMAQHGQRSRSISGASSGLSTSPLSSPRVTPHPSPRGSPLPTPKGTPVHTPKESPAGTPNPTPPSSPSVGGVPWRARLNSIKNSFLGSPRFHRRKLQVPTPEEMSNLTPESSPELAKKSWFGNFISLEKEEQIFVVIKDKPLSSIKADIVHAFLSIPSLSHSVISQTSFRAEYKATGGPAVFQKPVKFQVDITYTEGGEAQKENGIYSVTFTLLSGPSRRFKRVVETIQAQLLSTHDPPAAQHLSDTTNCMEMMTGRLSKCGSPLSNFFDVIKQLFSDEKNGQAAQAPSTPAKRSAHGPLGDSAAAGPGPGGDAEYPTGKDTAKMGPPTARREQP

The next experiment deals with T4, TXK (Homo sapiens, UniProt P42681).
T4 sequence (P42681 1-527): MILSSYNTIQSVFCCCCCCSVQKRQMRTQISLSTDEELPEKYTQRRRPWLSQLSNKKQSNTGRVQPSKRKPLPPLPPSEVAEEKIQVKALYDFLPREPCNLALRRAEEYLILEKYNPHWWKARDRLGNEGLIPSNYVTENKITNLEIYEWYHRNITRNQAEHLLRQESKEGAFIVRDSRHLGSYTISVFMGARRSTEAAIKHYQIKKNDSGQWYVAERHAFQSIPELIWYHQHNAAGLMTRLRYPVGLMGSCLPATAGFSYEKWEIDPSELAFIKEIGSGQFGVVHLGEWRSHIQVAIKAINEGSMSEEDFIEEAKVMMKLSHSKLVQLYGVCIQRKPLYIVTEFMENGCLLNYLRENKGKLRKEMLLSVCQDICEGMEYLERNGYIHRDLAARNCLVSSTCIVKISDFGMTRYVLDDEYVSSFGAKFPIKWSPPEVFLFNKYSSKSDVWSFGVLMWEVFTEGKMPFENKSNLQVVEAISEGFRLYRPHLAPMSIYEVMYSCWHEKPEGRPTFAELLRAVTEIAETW

The mark [2] stands for this setting: read-out: Percent control / Acalabrutinib.
The mark [3] stands for this setting: read-out: Percent control / Ibrutinib.
Where [4] appears, read: read-out: Percent control / Tirabrutinib.
The mark [5] stands for this setting: read-out: Percent control / Zanubrutinib.

T2 sequence (P00519 whole entry F317I): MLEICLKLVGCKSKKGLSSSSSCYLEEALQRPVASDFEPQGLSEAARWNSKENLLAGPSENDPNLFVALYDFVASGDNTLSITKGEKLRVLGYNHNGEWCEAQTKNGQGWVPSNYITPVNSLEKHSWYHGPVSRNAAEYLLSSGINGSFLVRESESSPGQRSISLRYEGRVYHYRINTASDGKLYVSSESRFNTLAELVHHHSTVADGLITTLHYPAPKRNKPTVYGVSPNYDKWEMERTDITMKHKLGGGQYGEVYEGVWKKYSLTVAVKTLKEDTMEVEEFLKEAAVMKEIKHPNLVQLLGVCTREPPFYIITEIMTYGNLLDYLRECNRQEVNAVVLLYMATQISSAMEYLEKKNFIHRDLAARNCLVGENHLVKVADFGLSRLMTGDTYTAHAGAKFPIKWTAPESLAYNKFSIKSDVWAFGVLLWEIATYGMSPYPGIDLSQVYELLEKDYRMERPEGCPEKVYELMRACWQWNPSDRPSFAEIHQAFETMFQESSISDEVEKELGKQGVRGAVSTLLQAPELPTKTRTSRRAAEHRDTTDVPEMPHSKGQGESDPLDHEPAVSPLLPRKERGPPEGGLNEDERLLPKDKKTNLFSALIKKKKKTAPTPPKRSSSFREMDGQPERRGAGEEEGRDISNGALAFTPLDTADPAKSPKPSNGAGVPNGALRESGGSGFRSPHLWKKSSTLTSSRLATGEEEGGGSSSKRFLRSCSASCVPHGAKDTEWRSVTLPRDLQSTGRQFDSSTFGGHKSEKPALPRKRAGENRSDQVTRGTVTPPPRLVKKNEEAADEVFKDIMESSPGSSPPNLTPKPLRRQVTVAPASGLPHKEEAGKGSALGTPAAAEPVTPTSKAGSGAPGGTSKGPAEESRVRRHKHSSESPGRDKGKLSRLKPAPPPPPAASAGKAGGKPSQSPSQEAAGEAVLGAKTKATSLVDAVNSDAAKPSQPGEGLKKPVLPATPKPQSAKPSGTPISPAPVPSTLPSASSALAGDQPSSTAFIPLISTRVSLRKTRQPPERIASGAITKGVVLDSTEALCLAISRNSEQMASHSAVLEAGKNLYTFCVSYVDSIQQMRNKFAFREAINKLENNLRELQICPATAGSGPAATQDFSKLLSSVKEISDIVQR
Sequence of PLK3 (Q9H4B4 whole entry): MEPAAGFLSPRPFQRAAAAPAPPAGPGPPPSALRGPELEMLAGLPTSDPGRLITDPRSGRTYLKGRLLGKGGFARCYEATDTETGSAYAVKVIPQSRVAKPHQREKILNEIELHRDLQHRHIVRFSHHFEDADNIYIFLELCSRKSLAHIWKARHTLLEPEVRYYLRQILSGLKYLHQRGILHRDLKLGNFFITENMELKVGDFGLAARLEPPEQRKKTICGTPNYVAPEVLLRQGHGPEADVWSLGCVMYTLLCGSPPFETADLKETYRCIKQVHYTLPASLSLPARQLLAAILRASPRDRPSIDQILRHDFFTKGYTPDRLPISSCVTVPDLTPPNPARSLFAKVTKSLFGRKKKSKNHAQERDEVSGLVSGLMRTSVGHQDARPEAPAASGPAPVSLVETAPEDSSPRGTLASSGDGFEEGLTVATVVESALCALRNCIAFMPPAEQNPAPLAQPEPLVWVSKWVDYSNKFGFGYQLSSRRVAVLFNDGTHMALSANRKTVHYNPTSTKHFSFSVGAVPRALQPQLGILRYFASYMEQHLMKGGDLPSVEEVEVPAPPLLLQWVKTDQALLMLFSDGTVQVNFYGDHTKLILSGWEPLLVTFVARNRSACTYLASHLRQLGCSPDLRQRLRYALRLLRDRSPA
Sequence of CSNK1E (P49674 whole entry): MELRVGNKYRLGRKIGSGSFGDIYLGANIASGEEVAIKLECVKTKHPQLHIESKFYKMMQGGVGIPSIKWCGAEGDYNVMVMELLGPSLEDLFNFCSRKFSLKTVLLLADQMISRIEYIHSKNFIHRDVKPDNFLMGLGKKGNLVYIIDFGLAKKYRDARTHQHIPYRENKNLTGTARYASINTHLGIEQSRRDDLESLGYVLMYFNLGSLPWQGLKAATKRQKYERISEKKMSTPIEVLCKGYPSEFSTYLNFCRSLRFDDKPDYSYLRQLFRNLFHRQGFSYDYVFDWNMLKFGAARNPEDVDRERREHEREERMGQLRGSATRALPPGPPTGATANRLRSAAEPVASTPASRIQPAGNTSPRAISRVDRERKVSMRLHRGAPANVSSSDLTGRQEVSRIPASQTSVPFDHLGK
Sequence of NEK7 (Q8TDX7 whole entry): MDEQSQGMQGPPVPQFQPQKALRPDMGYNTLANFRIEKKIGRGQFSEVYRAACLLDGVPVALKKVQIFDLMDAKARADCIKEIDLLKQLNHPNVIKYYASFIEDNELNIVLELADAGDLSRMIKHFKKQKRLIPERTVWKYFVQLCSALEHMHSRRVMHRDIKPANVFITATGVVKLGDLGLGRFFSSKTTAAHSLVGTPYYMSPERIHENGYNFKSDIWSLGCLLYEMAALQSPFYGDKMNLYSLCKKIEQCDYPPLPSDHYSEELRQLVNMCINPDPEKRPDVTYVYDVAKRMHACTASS
Sequence of ROCK2 (O75116 whole entry): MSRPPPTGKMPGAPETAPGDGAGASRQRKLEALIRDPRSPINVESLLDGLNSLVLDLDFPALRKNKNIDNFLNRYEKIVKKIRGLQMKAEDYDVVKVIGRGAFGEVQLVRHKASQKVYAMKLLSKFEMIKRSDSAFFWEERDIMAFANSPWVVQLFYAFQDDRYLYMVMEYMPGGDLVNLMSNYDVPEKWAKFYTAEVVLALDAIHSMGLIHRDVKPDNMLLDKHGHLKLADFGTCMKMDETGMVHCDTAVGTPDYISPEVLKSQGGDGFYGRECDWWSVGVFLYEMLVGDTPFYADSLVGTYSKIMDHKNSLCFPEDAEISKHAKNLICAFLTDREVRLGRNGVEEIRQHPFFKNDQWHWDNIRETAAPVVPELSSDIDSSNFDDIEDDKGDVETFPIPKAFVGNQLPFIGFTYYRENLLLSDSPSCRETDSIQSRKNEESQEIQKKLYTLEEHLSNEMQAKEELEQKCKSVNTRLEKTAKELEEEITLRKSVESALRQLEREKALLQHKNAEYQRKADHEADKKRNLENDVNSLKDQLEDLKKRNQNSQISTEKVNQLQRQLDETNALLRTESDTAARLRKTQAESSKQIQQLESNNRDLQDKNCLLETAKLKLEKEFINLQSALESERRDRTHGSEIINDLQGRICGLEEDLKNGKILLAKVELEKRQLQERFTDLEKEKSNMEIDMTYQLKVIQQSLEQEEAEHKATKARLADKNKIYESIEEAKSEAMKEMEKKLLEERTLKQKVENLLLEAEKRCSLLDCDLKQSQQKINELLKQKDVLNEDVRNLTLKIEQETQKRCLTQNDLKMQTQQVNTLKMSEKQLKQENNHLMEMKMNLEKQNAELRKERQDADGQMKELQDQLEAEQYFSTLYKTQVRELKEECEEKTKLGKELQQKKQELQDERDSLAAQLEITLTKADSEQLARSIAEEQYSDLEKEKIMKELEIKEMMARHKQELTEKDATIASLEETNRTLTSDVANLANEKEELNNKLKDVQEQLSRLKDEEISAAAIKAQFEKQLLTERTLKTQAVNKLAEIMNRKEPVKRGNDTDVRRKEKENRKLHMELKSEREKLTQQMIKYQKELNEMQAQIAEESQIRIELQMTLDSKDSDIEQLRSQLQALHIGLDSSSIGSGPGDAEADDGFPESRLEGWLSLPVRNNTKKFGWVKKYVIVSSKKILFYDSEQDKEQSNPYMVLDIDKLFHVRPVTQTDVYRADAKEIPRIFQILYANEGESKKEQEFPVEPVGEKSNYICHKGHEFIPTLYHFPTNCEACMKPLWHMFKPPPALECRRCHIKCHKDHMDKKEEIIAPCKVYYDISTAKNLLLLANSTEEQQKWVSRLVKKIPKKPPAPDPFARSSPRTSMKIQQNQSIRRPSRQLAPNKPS

As for `CC#CC(=O)N1CCC[C@H]1c1nc(-c2ccc(C(=O)Nc3ccccn3)cc2)c2c(N)nccn12` [Acalabrutinib], the remaining binding at 0.3 µM on CSNK1E (setting [2]) amounted to 89%; at SLK (setting [2]) it was 88%; on PLK3 (setting [2]), 91%; at BRSK1 (setting [2]), 92%; at NEK7 (setting [2]), 76%; at ROCK2 (setting [2]), 94%. The results for the remaining binding at 0.3 µM (in [1] (setting [2]); at BRSK2 (setting [2]); on TXK (setting [2])) were 81%, 94% and 43%, respectively.

Consider `C=CC(=O)N1CCC[C@@H](n2nc(-c3ccc(Oc4ccccc4)cc3)c3c(N)ncnc32)C1` [Ibrutinib], for which the remaining binding at 0.3 µM turned out to be 79% on CSNK1E (setting [3]); 92% on SLK (setting [3]); 94% on PLK3 (setting [3]); 72% on BRSK1 (setting [3]); 97% on NEK7 (setting [3]); 84% on ROCK2 (setting [3]). Also, the values for the remaining binding at 0.3 µM (in experiment [1] (setting [3]); at BRSK2 (setting [3]); at TXK (setting [3])) were 42%, 82% and 0.4%, respectively.

In the case of `CC#CC(=O)N1CC[C@@H](n2c(=O)n(-c3ccc(Oc4ccccc4)cc3)c3c(N)ncnc32)C1` [Tirabrutinib], the remaining binding at 0.3 µM at CSNK1E (setting [4]) stood at 95%; at SLK (setting [4]) it was 93%; on ROCK2 (setting [4]), 90%; in experiment [1] (setting [4]) it was 77%; at TXK (setting [4]), 38%.

Regarding `C=CC(=O)N1CCC([C@@H]2CCNc3c(C(N)=O)c(-c4ccc(Oc5ccccc5)cc4)nn32)CC1` [Zanubrutinib], the remaining binding at 0.3 µM was 99% at SLK (setting [5]); 94% at PLK3 (setting [5]); 92% on BRSK1 (setting [5]); 91% on NEK7 (setting [5]); 85% at ROCK2 (setting [5]); 81% at BRSK2 (setting [5]). The remaining binding at 0.3 µM at TXK (setting [5]) amounted to 14%.
